This note sets out measurements from patent US4795814A, “Process for preparing novel dihydropyridine derivatives” (Otsuka Pharmaceutical Co., Ltd., priority 1984, dated 1989).

The test system of assay [1] is SHR-rats (spontaneously hypertensive rats). The experiment in a line: Pharmacological Test-1: vasodilative effect, systolic blood pressure of SHR-rats by tail cuff method after oral administration. The class given is in vivo. The following applies: 30 mg/kg p.o.
Description: Vasodilative effects of the dihydropyridine derivatives of the present invention were determined by measuring the systolic blood pressures of test animals before and after the administration of test compound.
Systolic blood pressures and heart beat of SHR-rats (spontaneously hypertensive rats) were determined by a "tail cuff method". Thus the test animal was placed in a thermostat chamber (Type: FR-12RS, manufactured by Isuze & Co.) and was warmed at 40° C. for 15 minutes so as to vasodilate the tail arteria, the systolic blood pressures were measured by an electro sphygmomanometer (Type: PE-300, manufactured by Narco-Biosystems, Inc.) and recorded by an ink-writing recorder (Type: RECTIHORIZ 8s, manufactured by San-Ei Instrument & Co.). The experiments were conducted under non-anesthetized and semi-confinement conditions. The test compound was orally administered forcedly by using a sonde for oral administration. The test compound was suspended in 0.15%-gum arabic powder aqueous solution so as to make the quantity of the test compound to 2.5 ml/kg. The test animal was not fasted, and the systolic blood pressures (mm-Hg) were measured before the administration (hereinafter referred to as "PRE") and after the administration (8, 24, 30, 48, 54 and 72 hours after the administration) of the test compound. The data of systolic blood pressure measured before the administration are shown in absolute value of mmHg, and the data measured after the administration are shown in the differences from the absolute values.
Assay [2] concerns the target T1, Calmodulin-cyclic-AMP phosphodiesterase (Bos taurus, UniProt P14100+P62157).
T1 construct: An enzyme substance isolated from the heart of bovine and purified partially; which was isolated from the brain of bovine, and purified so as to be considered as a single substance; from tissue; host or cells: bovine heart (phosphodiesterase); the calmodulin is a bovine brain product of Amano & Co
The experiment in a line: Pharmacological Test-2 (1): Calmodulin-cyclic-AMP phosphodiesterase inhibitory activity (with calmodulin, CaCl2). As to conditions: in the presence of calmodulin, CaCl2, pH 7.0, 30° C., 30 minutes. The class given is biochemical, bovine. The text has this:
(1) Calmodulin: A calmodulin product manufactured by Amano & Co., which was isolated from the brain of bovine, and purified so as to be considered as a single substance with respect to SDS-page (polyacrylamide gel electrophoresis) method.
(§1) (2) Calmodulin-dependent cyclic-AMP phosphodiesterase (EC 3.1.4.17): An enzyme substance isolated from the heart of bovine and purified partially by a method of modified version of the disclosure in H. C. Ho, T. S. Teo, et al.: "Biochim. Biophys. Acta", 429, 461 (1976).
(§2) (3) 5'-Nucleotidase (EC 3.1.3.5): Grade IV substance (isolated from Crotalus adamanteus venom) manufactured by Sigma & Co.
(§3) (4) Others: Remainder of the reagents used in the test were those of reagent grade chemicals manufactured by Wako Pure-Chemical Industries, Ltd.
(§4) Calmodulin inhibitory activity of each of the test compounds was measured by a method of modified version of the disclosure in T. S. Teo and T. H. Wang: "J. Bio. Chem.", 248, 588 (1973).
(2) Calmodulin: One unit thereof stimulates 0.015 activated unit of cyclic-AMP phosphodiesterase to 50% of the maximum activity of the enzyme.
(§5) (3) 5'-Nucleotidase: One unit thereof hydrolyzes 1.0 micromole of inorganic phosphorus from adnosine 5'-monophosphate per minute at pH 9.0 at 37° C.
(3) Reactions in the tests (1) Calmodulin-cyclic-AMP phosphodiesterase inhibitory activity:
(§6) 40 mM of Imidazol, 20 mM of MgCl2, 20 mM of CaCl2, 0.008 […] of cyclic-AMP phosphodiesterase, 1.0 unit of calmodulin, 0.2 unit of 5'-nucleotidase and 1.0 ml of 10 mM-tris(hydroxymethyl)aminomethane/HCl buffer solution (pH 7.0) containing 0.5 mM of cyclic-AMP were mixed together, and reacted at 30° C. for 30 minutes. Each of the test compounds were dissolved in methanol or N,N-dimethylformamide as the solvent, provided that the quanitty of the solvent was not exceed 2% of the total amount of the mixture. After the reaction was completed, the reaction mixture was ice-cooled, and 0.5 ml each of aqueous solutions of 16.5%-trichloroacetic acid, 1%-thiourea, 3%-ammonium ferrous sulfate were respectively added to the reaction mixture. Further, 0.15 ml of 4.4%-ammonium molibdate solution was added to the mixture and the whole of the mixture was stirred, and was centrifuged at 3,000 r.p.m. for 10 minutes. Then, the centrifuged mixture was allowed to stand at a room temperature for 20 minutes. The OD660 nm (optical density at 660 nm) was measured.

Assay [3] addresses T2, Calmodulin-dependent cyclic-AMP phosphodiesterase (EC 3.1.4.17) (Bos taurus, UniProt P14100).
T2 construct: An enzyme substance isolated from the heart of bovine and purified partially; from tissue; host or cells: bovine heart
The experiment in a line: Pharmacological Test-2 (2): Cyclic-AMP phosphodiesterase inhibitory activity (EGTA in place of CaCl2). The assay is classed as biochemical, bovine.
Description: as §1, §2, §3, §4, §5, §6
(2) Cyclic-AMP phosphodiesterase inhibitory activity:
The reaction was conducted by a method similar to that described in (1) as mentioned above, except that 1 mM of EGTA [ethylene glycol-bis(β-aminoethyl ether)-N,N-tetraacetic acid] was used in place of 20 mM of CaCl2. The reaction was conducted for 3 hours.

[4] abbreviates: 1 mM EGTA in place of CaCl2, 3 hours, read-out: Cyclic-AMP phosphodiesterase IC50 (converted).

Where two headings read alike, the source gives them in different places.

T2 sequence (P14100 1-514 isoform P14100-2): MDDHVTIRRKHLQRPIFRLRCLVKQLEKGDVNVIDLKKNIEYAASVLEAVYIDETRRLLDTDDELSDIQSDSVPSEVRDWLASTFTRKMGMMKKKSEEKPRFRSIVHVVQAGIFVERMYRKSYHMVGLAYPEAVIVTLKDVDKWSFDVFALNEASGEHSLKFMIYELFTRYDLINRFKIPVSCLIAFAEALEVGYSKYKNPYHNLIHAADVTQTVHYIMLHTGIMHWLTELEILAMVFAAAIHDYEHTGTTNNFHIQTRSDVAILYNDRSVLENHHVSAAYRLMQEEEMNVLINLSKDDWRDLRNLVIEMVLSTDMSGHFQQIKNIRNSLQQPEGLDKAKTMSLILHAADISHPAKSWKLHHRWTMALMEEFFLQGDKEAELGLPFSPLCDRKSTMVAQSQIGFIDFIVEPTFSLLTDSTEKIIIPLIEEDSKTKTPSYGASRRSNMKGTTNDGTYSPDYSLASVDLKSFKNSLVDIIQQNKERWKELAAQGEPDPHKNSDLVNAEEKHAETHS

As to “methyl 4-[(1-ethoxy)ethoxy]cinnamyl 1,4-dihydro-2,6-dimethyl-4-(3-nitrophenyl)pyridine-3,5-dicarboxylate [Example 1]”, the “Blood pressure after the administration, difference from the PRE value” in assay [1] (24 hours) is -41.0 mm-Hg; in assay [1] (30 hours) it was -52.0 mm-Hg; in assay [1] (48 hours), -26.5 mm-Hg; in assay [1] (54 hours), -19.8 mm-Hg; in assay [1] (72 hours), -12.5 mm-Hg.
As usually defined, the IC50 is the midpoint of a concentration-inhibition curve. As to `COC(=O)C1=C(C)NC(C)=C(C(=O)OCC/C=C/c2ccc(SC)cc2)C1c1cccc([N+](=O)[O-])c1` (stereo not drawn) [Test Compound 13, Methyl 4-(4-methylthiophenyl)-3(E)-butenyl 1,4-dihydro-2,6-dimethyl-4-(3-nitrophenyl)-pyridine-3,5-dicarboxylate], the 50% inhibitory concentration (IC50) in assay [2] is 0.122 µM; in assay [3] (setting [4]), 0.452 µM.
Turning to `COC(=O)C1=C(C)NC(C)=C(C(=O)OC/C=C/c2ccc(O)c(OC)c2)C1c1cccc([N+](=O)[O-])c1` (stereo not drawn) [Test Compound 7, Methyl 3-(3-methoxy-4-hydroxyphenyl)-2(E)-propenyl 1,4-dihydro-2,6-dimethyl-4-(3-nitrophenyl)pyridine-3,5-dicarboxylate], in assay [3] (setting [4]), the IC50 was 174 µM.
Regarding `COC(=O)C1=C(C)NC(C)=C(C(=O)OCC#Cc2ccc(O)cc2)C1c1cccc([N+](=O)[O-])c1` (stereo not drawn) [Test Compound 10, Methyl 3-(4-hydroxyphenyl)-2-propynyl 1,4-dihydro-2,6-dimetyyl-4-(3-nitrophenyl)-pyridine-3,5-dicarboxylate], the IC50 in assay [2] is 1.69 µM; in assay [3] (setting [4]) it was 28.1 µM.
In the case of `COC(=O)C1=C(C)NC(C)=C(C(=O)OC/C=C/c2ccc(O)c(Cl)c2)C1c1cccc([N+](=O)[O-])c1` (stereo not drawn) [Test Compound 9, Methyl 3-(3-chloro-4-hydroxyphenyl)-2(E)-propenyl 1,4-dihydro-2,6-dimetyyl-4-(3-nitrophenyl)pyridine-3,5-dicarboxylate], in assay [3] (setting [4]), the IC50 is over 200 µM.
The same measure, in the same setting: the value for `COC(=O)C1=C(C)NC(C)=C(C(=O)OC/C=C/c2ccc(OC)cc2)C1c1cccc([N+](=O)[O-])c1` (stereo not drawn) [Test Compound 8] was over 209 µM; that for `COC(=O)C1=C(C)NC(C)=C(C(=O)OC/C=C/c2ccccc2O)C1c1cccc([N+](=O)[O-])c1` (stereo not drawn) [Test Compound 11, Methyl 3-(2-hydroxyphenyl)-2(E)-propenyl 1,4-dihydro-2,6-dimethyl-4-(3-nitrophenyl)-pyridine-3,5-dicarboxylate] was 26.9 µM.
With `COC(=O)C1=C(C)NC(C)=C(C(=O)OC/C=C/C=C/c2ccc(O)cc2)C1c1cccc([N+](=O)[O-])c1` (stereo not drawn) [Test Compound 3, Methyl 5-(4-hydroxyphenyl)-2(E),4(E)-pentadienyl 1,4-dihydro-2,6-dimethyl-4-(3-nitrophenyl)-pyridine-3,5-dicarboxylate], in assay [3] (setting [4]), the IC50 was over 204 µM.
Turning to `COC(=O)C1=C(C)NC(C)=C(C(=O)OC/C=C/c2ccc(O)cc2)C1c1ccccc1C(F)(F)F` (stereo not drawn) [Test Compound 12], the IC50 in assay [3] (setting [4]) is over 205 µM.
Consider `COC(=O)C1=C(C)NC(C)=C(C(=O)OC/C=C/c2ccc(O)cc2)C1c1cccc([N+](=O)[O-])c1` (stereo not drawn) [Test Compound 1, Methyl 3-(4-hydroxyphenyl)-2(E)-propenyl 1,4-dihydro-2,6-dimethyl-4-(3-nitrophenyl)pyridine-3,5-dicarboxylate], for which the IC50 was 8.83 µM in assay [2] and 129 µM in assay [3] (setting [4]).
On to `COC(=O)C1=C(C)NC(C)=C(C(=O)OC/C=C/c2ccc(OC(C)=O)cc2)C1c1cccc([N+](=O)[O-])c1` (stereo not drawn) [Example 14], for which the IC50 in assay [3] (setting [4]) is 98.7 µM.
For the molecule `COC(=O)C1=C(C)NC(C)=C(C(=O)OC/C=C/c2cccc(O)c2)C1c1ccccc1[N+](=O)[O-]` (stereo not drawn) [Test Compound 17, Methyl 3-(3-hydroxyphenyl)-2(E)-propenyl 1,4-dihydro-2,6-dimethyl-4-(2-nitrophenyl)-pyridine-3,5-dicarboxylate], the figures for the IC50 in assay [2] and in assay [3] (setting [4]) were 1.94 µM and 53 µM, respectively.
As for `COC(=O)C1=C(C)NC(C)=C(C(=O)OC/C=C/c2ccc(O)cc2)C1c1ccccc1C` (stereo not drawn) [Test Compound 16, Methyl 3-(4-hydroxyphenyl)-2(E)-propenyl 1,4-dihydro-2,6-dimethyl-4-(2-methylphenyl)-pyridine-3,5-dicarboxylate], the IC50 in assay [3] (setting [4]) was 134 µM.
On the same count and under the same terms, in the case of `COC(=O)C1=C(C)NC(C)=C(C(=O)OC/C=C/c2ccc(O)cc2)C1c1ccccc1` (stereo not drawn) [Test Compound 15, Methyl 3-(4-hydroxyphenyl)-2(E)-propenyl 1,4-dihydro-2,6-dimethyl-4-phenylpyridine-3,5-dicarboxylate] it was 76.3 µM.
Take `COC(=O)C1=C(C)NC(C)=C(C(=O)OCCN(C)Cc2ccccc2)C1c1cccc([N+](=O)[O-])c1` (stereo not drawn) [Test Compound 18, Methyl 2-(N--methyl-N--benzylamino)ethyl 1,4-dihydro-2,6-dimetyyl-4-(3-nitrophenyl)pyridine-3,5-dicarboxylate, reference compound]: the IC50 in assay [3] was 27.1 µM.
With `COC(=O)C1=C(C)NC(C)=C(C(=O)OC/C=C/c2ccccc2)C1c1cccc([N+](=O)[O-])c1` (stereo not drawn) [Test Compound 2, Methyl 3-phenyl-2(E)-propenyl 1,4-dihydro-2,6-dimethyl-4-(3-nitrophenyl)pyridine-3,5-dicarboxylate], the IC50 in assay [3] (setting [4]) is over 223 µM.
